Legend:
[1] = system: influenza virus infection; details: treatment initiated within 48 hours of the onset of fever; cited from earlier work
influenza = assay type: in vivo, pediatric patients; details: proven influenza patients group in the first study period and second study period

Compound: CCOC(=O)C1=C[C@@H](OC(CC)CC)[C@H](NC(C)=O)[C@@H](N)C1 [Oseltamivir]
- average duration of fever after the initiation of oseltamivir treatment [1]: 1.7 days
- patients afebrile (<37.5℃) within one day [1]: 44%
- patients recovered within two days [1]: 86%
- admission duration, Group A compared with group B (influenza): significant shorter
- frequency in pneumonia, Group A compared with group B (influenza): lesser frequency
